Test results from PubChem BioAssay AID2060622 (Molecular Pharmacology Branch, DTP, NCI, 2025).

System: 242566-281-R-J2-PDC complex spheroid viability
Assay: Anticancer human tumor 242566-281-R-J2-PDC patient-derived pancreatic carcinoma cell line growth inhibition [CLK]
Details: for IC50: curve of first compound; for viability, T/C: stronger effect = lower value
From the text: A high-throughput screen of multi-cell type tumor spheroids was designed to identify active combinations of […] and targeted small molecules. Complex spheroids include a stromal component modeled by human endothelial cells (HUVEC) and fibroblasts modeled by human mesenchymal stem cells (MSCs). The concentration ranges selected for each drug and investigational agent were based upon clinically achievable concentrations if the clinical Cmax of the agent was known.
Compounds. The drugs and investigational agents: cirtuvivint (SM08502; NSC835563), CC-671 (NSC850746), vemurafenib (NSC761431), tapotoclax (NSC804041), sotorasib (NSC818433), adagrasib (NSC831453), MRTX-1133 (NSC836407), BAY2416964 (NSC825713), copanlisib (NSC816437), inavolisib (NSC800729), abemaciclib (NSC768073), osimertinib (NSC779217), entinostat (NSC756642), eltanexor (KPT-8602, NSC794443), venetoclax (NSC766270), ceralasertib (NSC777638), bortezomib (NSC756655), olaparib (NSC753686), talazoparib (NSC767125), alisertib (NSC759677), peposertib (NSC802822), gemcitabine (NSC613327), 5-fluorouracil (NSC19893), SN-38 (NSC673596), oxaliplatin (NSC266046), paclitaxel (NSC125973), and doxorubicin (NSC123127), were obtained from the National Cancer Institute (NCI) Developmental Therapeutics Program Chemical Repository. The FDA-approved anticancer drug set is available from the Developmental Therapeutics Program at https://dtp.cancer.gov/organization/dscb/obtaining/available plates.htm. […] The stock solutions were prepared in dimethyl sulfoxide (DMSO, Sigma-Aldrich, St. Louis, MO, cat. D2650), except for the platinum complexes which were prepared in saline (Quality Biological, Gaithersburg, MD, cat. 114-055-101), at 800-fold the tested concentration and stored at -70 degrees C prior to their use. All drugs and investigational agents were tested over a range starting from a high concentration at or near the clinical Cmax and decreasing in half-log increments. If the clinical Cmax for an agent had not been determined, the highest concentration tested was 10 microM.
Cell Culture. All cells were maintained in an incubator at 37 degrees C and 5% CO2 with 95% humidity. The PDC lines were cultured according to standard operating procedures established by the NCI PDMR. Briefly, all PDCs were thawed and cultured in Matrigel-coated flasks prepared with a working solution of 1X Ham's F-12 nutrient mix, without supplementation (Invitrogen, Waltham, MA, cat. 11765054), 100 U/mL penicillin-streptomycin (Invitrogen, cat. 15140122), and 2.5% Matrigel (Corning Inc., Corning, NY, cat. 354248) for the first three passages. The 947758-054-R-J2-PDC line was cultured in 6B/Colon 1A media, which includes advanced DMEM/F-12 (Thermo Fisher Scientific, cat. 12634028), 10 mM HEPES (Thermo Fisher Scientific, cat. 15630080), 1X GlutaMAX supplement (Thermo Fisher Scientific, cat. 35050061), 0.1 mg/mL primocin (InvivoGen, cat. ant-pm-2), 10% defined fetal bovine serum, heat inactivated (HyClone Laboratories Inc., cat. SH30070.03HI), 1.25 mM N-Acetyl-L-cysteine (Sigma-Aldrich, cat. A9165), 10 mM nicotinamide (Sigma-Aldrich, cat. N0636), 1X B-27 supplement (Thermo Fisher Scientific, cat. 17504044), 1X N-2 supplement (Thermo Fisher Scientific, cat. 17502048), and 10 microM Y-27632 dihydrochloride (Tocris Bioscience, cat. 1254). The 876862-298-R-J1-PDC was cultured in 6E media, which includes all 6B/Colon 1A media components plus 50% L-WRN conditioned media (ATCC, cat. CRL-3276), 50 ng/mL recombinant human EGF recombinant protein (hEGF; Thermo Fisher Scientific, cat. PHG0311), 10 ng/mL recombinant human fibroblast growth factor 10 (hGFG-10; PeproTech, cat. 100-26), 1 ng/mL recombinant human fibroblast growth factor 2 (hFGF-2; PeproTech, cat. 100-18B), and 1 µM prostaglandin E2 (PGE2; Tocris, cat. 2296). The 227483-062-R1-J1-PDC line was cultured in Panc media, containing all 6E components except hFGF-2, with the addition of 500 nM SB-431542 (Selleckchem, cat. S1067) and 10 nM gastrin (Tocris, cat. 3006). […]

[1] = second compound 0.0316 µM, first compound 0.0316 µM
[2] = second compound 0.0316 µM, first compound 0.1 µM
[3] = second compound 0.0316 µM, first compound 0.316 µM
[4] = second compound 0.0316 µM, first compound 1 µM
[5] = second compound 0.0316 µM, first compound 3.16 µM
[6] = second compound 0.0316 µM, first compound 10 µM
[7] = second compound 0.1 µM, first compound 0.0316 µM
[8] = second compound 0.1 µM, first compound 0.1 µM
[9] = second compound 0.1 µM, first compound 0.316 µM
[10] = second compound 0.1 µM, first compound 1 µM
[11] = second compound 0.1 µM, first compound 3.16 µM
[12] = second compound 0.1 µM, first compound 10 µM
[13] = second compound 0.316 µM, first compound 0.0316 µM
[14] = second compound 0.316 µM, first compound 0.1 µM
[15] = second compound 0.316 µM, first compound 0.316 µM
[16] = second compound 0.316 µM, first compound 1 µM
[17] = second compound 0.316 µM, first compound 3.16 µM
[18] = second compound 0.316 µM, first compound 10 µM
[19] = second compound 1 µM, first compound 0.0316 µM
[20] = second compound 1 µM, first compound 0.1 µM
[21] = second compound 1 µM, first compound 0.316 µM
[22] = second compound 1 µM, first compound 1 µM
[23] = second compound 1 µM, first compound 3.16 µM
[24] = second compound 1 µM, first compound 10 µM
[25] = second compound 3.16 µM, first compound 0.0316 µM
[26] = second compound 3.16 µM, first compound 0.1 µM
[27] = second compound 3.16 µM, first compound 0.316 µM
[28] = second compound 3.16 µM, first compound 1 µM
[29] = second compound 3.16 µM, first compound 3.16 µM
[30] = second compound 3.16 µM, first compound 10 µM
[31] = second compound 10 µM, first compound 0.0316 µM
[32] = second compound 10 µM, first compound 0.1 µM
[33] = second compound 10 µM, first compound 0.316 µM
[34] = second compound 10 µM, first compound 1 µM
[35] = second compound 10 µM, first compound 3.16 µM
[36] = second compound 10 µM, first compound 10 µM
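Also: spheroids exposed to compounds for 7 days before readout.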
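For viability, T/C in this document: 100% = DMSO vehicle control wells.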

C#Cc1c(F)ccc2cc(O)cc(-c3ncc4c(N5CC6CCC(C5)N6)nc(OCC56CCCN5CC(F)C6)nc4c3F)c12 (centres undefined) + CN1CCN(c2cc(C(=O)Nc3cc4cc(-c5cnn(C)c5)ccc4cn3)ccn2)CC1
IC50 (second compound 0.0316 µM): 84.6 nM | IC50 (second compound 0.1 µM): 65.3 nM | IC50 (second compound 0.316 µM): < 31.6 nM | IC50 (second compound 1 µM): < 31.6 nM | IC50 (second compound 3.16 µM): < 31.6 nM | IC50 (second compound 10 µM): < 31.6 nM | viability, T/C [1]: 63.9% | viability, T/C [2]: 47.5% | viability, T/C [3]: 34% | viability, T/C [4]: 29.4% | viability, T/C [5]: 23.9% | viability, T/C [6]: 17.1% | viability, T/C [7]: 61.3% | viability, T/C [8]: 42.9% | viability, T/C [9]: 31.1% | viability, T/C [10]: 19.9% | viability, T/C [11]: 18.5% | viability, T/C [12]: 15.5% | viability, T/C [13]: 18.4% | viability, T/C [14]: 13.2% | viability, T/C [15]: 12.2% | viability, T/C [16]: 10.6% | viability, T/C [17]: 7.18% | viability, T/C [18]: 3.44% | viability, T/C [19]: 1.87% | viability, T/C [20]: 1.39% | viability, T/C [21]: 1.09% | viability, T/C [22]: 1.22% | viability, T/C [23]: 1.43% | viability, T/C [24]: 1.26% | viability, T/C [25]: 2.9% | viability, T/C [26]: 2.24% | viability, T/C [27]: 2.74% | viability, T/C [28]: 2.35% | viability, T/C [29]: 2.06% | viability, T/C [30]: 1.51% | viability, T/C [31]: 1.01% | viability, T/C [32]: 0.76% | viability, T/C [33]: 0.69% | viability, T/C [34]: 0.78% | viability, T/C [35]: 0.71% | viability, T/C [36]: 0.34%

C=C(F)C(=O)N1CCN(c2nc(OCC3CCCN3C)nc3c2CCN(c2cccc4cccc(Cl)c24)C3)CC1CC#N (centres undefined) + CN1CCN(c2cc(C(=O)Nc3cc4cc(-c5cnn(C)c5)ccc4cn3)ccn2)CC1
IC50 (second compound 0.0316 µM): 4990 nM | IC50 (second compound 0.1 µM): 4260 nM | IC50 (second compound 0.316 µM): < 31.6 nM | IC50 (second compound 1 µM): < 31.6 nM | IC50 (second compound 3.16 µM): < 31.6 nM | IC50 (second compound 10 µM): < 31.6 nM | viability, T/C [1]: 84.6% | viability, T/C [2]: 115% | viability, T/C [3]: 104% | viability, T/C [4]: 114% | viability, T/C [5]: 82.7% | viability, T/C [6]: 0.15% | viability, T/C [7]: 103% | viability, T/C [8]: 95.9% | viability, T/C [9]: 90.9% | viability, T/C [10]: 90.2% | viability, T/C [11]: 67.7% | viability, T/C [12]: 0.87% | viability, T/C [13]: 42.9% | viability, T/C [14]: 38.7% | viability, T/C [15]: 50.4% | viability, T/C [16]: 41.3% | viability, T/C [17]: 25.2% | viability, T/C [18]: 0.12% | viability, T/C [19]: 4.94% | viability, T/C [20]: 4.71% | viability, T/C [21]: 4.65% | viability, T/C [22]: 4.68% | viability, T/C [23]: 3.14% | viability, T/C [24]: 0.13% | viability, T/C [25]: 7.96% | viability, T/C [26]: 8.51% | viability, T/C [27]: 7.38% | viability, T/C [28]: 6.75% | viability, T/C [29]: 4.99% | viability, T/C [30]: 0.12% | viability, T/C [31]: 2.22% | viability, T/C [32]: 2.75% | viability, T/C [33]: 2.19% | viability, T/C [34]: 1.43% | viability, T/C [35]: 0.37% | viability, T/C [36]: 0.24%
